Measurements as given in US10399931B2, “Octahydroanthracene compound, preparation method and application thereof” (SHANDONG XINHUA PHARMACEUTICAL CO., LTD., priority 2016, dated 2019).

What was measured:
microglia = experiment: Phagocytosis of β-amyloid protein by microglia in APP/PS1 mice; assay type: in vivo
Protocol: • 4.3.1. Immersing the paraffin sections in xylene to dewax for 15 min, and 2 times in total; then immersing in gradient alcohols with a gradient of 100%, 100%, 95%, 90%, 85% and 75%, each for 5 min. • 4.3.2. Microwave antigen retrieval: immersing the sections in 0.01 M citrate buffer (pH 6.0), heating to boiling in a microwave oven, and repeating twice; after natural cooling, washing 2 times with PBS for 5 min each time. • 4.3.3. Blocking endogenous peroxidase: blotting around the brain tissue with filter paper, outlining the brain tissue with a PAP pen. Adding dropwise the peroxidase blocker, incubating for 10 min at room temperature, and washing 3 times with PBS for 5 min each time. • 4.3.4. Adding dropwise normal serum blocking solution diluted with 0.01M PBS at a ratio of 1:10, standing at room temperature for 20 min, shaking off the excess liquid and not washing. • 4.3.5. Adding dropwise the primary antibody diluted with 0.01 M PBS, keeping at 4° C. overnight; washing 3 times with 0.01 M PBS for 2 min each time. • 4.3.6. […] Sealing with water-soluble sealant; observing by fluorescence microscopy. […] Washing 3 times with the PBS on a shaker in a dark for 3 min each time; sealing with the water-soluble sealant, and observing by fluorescence microscope. […]

tau protein = experiment: Tau protein phosphorylation; parameters: species or system mice; conditions: mouse, in vivo
[1] = test system: APP/PS1 double transgenic AD model mice; experiment: Pathology of hippocampal CA1 neurons in APP/PS1 mice; assay type: in vivo

For CC1(C)CCC(C)(C)c2c1cc1c(c2NC(=O)c2ccc(NC(=O)NCCN)cc2)C(C)(C)CCC1(C)C [OAB-14, 1-(2-amino) ethyl-3-{4-[(1,1,4,4,5,5,8,8-octamethyl-1,2,3,4,5,6,7,8-octahydro-9-anthryl)carbamoyl]phenyl} urea], the “Phagocytosis of microglia in the central nervous system to β-amyloid protein” value (microglia) was “promoting the phagocytosis”, the Tau protein phosphorylation (tau protein) was “reducing the tau protein phosphorylation” and the “Morphology of hippocampal CA1 neurons” value ([1]; 100 mg/kg group) was “closely arranged, no visible edema and nuclear pyknosis”. The “Morphology of hippocampal CA1 neurons” value ([1]; 200 mg/kg group) was “closely arranged, no visible edema and nuclear pyknosis”.
